From patent US10369160B2, “Methods of treating cancer” (Intercept Pharmaceuticals, Inc., priority 2016, dated 2019) come the findings set out here.

Structures are written as SMILES.

Data set [1] concerns Cholesterol 7 alpha-hydroxylase (cyp7a1). The data set is described as follows: Hepatic FXR target gene expression, Cyp7a1, in Mdr2^−/− mice. The note with it: Mdr2^−/− mice only (not FXR^−/−). The format is in vivo. From the text: Cholesterol 7 alpha-hydroxylase (cyp7a1) is the rate limiting enzyme in the classical biosynthetic pathways which convert cholesterol into bile acids. Both INT-767 and INT-747 inhibited Cyp7a1 gene expression in Mdr2^−/− mice only (FIG. 8). The bile salt export pump (Bsep) is a membrane protein that uses energy of ATP hydrolysis to actively transport bile acid salts.

A further data set has as its target T1, FXR (Homo sapiens, UniProt Q96RI1).
T1 sequence (Q96RI1 1-486): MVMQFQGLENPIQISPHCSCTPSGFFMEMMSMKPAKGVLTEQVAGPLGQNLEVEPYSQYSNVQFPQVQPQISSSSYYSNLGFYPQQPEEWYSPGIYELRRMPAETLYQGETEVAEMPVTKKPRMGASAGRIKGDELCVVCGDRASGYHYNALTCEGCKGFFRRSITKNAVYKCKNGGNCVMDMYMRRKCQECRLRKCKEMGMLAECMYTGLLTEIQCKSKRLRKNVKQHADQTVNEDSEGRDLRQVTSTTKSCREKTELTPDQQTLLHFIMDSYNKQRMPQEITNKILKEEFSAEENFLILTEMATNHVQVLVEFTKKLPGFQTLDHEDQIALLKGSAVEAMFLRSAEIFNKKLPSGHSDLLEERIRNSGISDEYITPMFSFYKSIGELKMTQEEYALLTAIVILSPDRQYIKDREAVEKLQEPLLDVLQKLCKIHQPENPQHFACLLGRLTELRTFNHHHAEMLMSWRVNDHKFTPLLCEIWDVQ
The data set is described as follows: Potency for FXR (INT-767 versus INT-747). The note with it: greater than INT-747.

Data set [2] concerns fibroblast growth factor 15 (Fgf15). The data set is described as follows: Ileal FXR target gene expression, Fgf15, in Mdr2^−/− mice. The note with it: Mdr2^−/− groups only (not FXR^−/−). The format is in vivo. From the text:
(§1) As expected, both INT-747 and INT-767 stimulated fibroblast growth factor 15 (Fgf15) and small heterodimer partner (Shp) gene expression in Mdr2^−/− groups only (FIGS. 7A and 7B).

For data set [3], the system named is small heterodimer partner (Shp). The data set can be described thus: Ileal FXR target gene expression, Shp, in Mdr2^−/− mice. The conditions noted are these: Mdr2^−/− groups only (not FXR^−/−). The format is in vivo.
Description: as §1

Data set [4] concerns bile salt export pump (Bsep). The data set is described as follows: Hepatic FXR target gene expression, Bsep, in Mdr2^−/− mice. The format is in vivo. From the text:
Cholesterol 7 alpha-hydroxylase (cyp7a1) is the rate limiting enzyme in the classical biosynthetic pathways which convert cholesterol into bile acids. […] The bile salt export pump (Bsep) is a membrane protein that uses energy of ATP hydrolysis to actively transport bile acid salts.

A further data set relates to FXR^−/− mice. The data set can be described thus: Hepatocarcinogenesis in FXR^−/− mice (tumors, LW/BW, ALT/AST, serum bile acids). The note with it: for liver tumors found: diet 10 mg/kg for 15 months.
For another data set, the system named is Mdr2^−/− mice. The data set is described as follows: Hepatocarcinogenesis in Mdr2^−/− mice (tumors, LW/BW, ALT/AST, serum bile acids).

Description for FXR^−/− mice: The effects of INT-747, INT-767, and control diet in Mdr2^−/− and FXR^−/− mice on the development of hepatocellular carcinoma were evaluated.
Mdr2^−/− and FXR^−/− mice were randomly divided into three experimental groups.
The mice were fed a specific rodent diet or a diet supplemented with INT-747, INT-767, or control diet for 15 months. All mice were housed under pathogen-free conditions in a temperature-controlled room (23° C.) on a 12-hour light/dark cycle and drank water ad libitum. […] After 16 months, the mice were sacrificed and serum, liver and intestine were collected. The total number of hepatic tumors was counted and the diameter of each tumor was measured.
• Mice (n=4) were fed control diet for 15 months. Group 2: INT-747 • Mice (n=8) were fed control diet supplemented with OCA at a dose of 10 mg/kg for 15 months. Group 3: INT-767 • Mice (n=15) were fed control diet supplemented with INT-767 at a dose of 10 mg/kg for 15 months.

As to `CC[C@H]1[C@@H](O)C2C3CC[C@H]([C@H](C)CCOS(=O)(=O)[O-])[C@@]3(C)CCC2[C@@]2(C)CC[C@@H](O)C[C@@H]12.[Na+]` (stereo partly drawn) [INT-767, 6α-ethyl-3α,7α,23-trihydroxy-24-nor-5β-cholan-23-sulphate sodium], in data set [1], the “hepatic Cyp7a1 gene expression” value is recorded as “inhibited”.

On to `CC[C@H]1[C@@H](O)[C@@H]2[C@H](CC[C@]3(C)[C@@H]([C@H](C)CCOS(=O)(=O)[O-])CC[C@@H]23)[C@@]2(C)CC[C@@H](O)C[C@@H]12.[Na+]` [INT-767, 6α-ethyl-3α,7α,23-trihydroxy-24-nor-5β-cholan-23-sulphate sodium], for which the “potency for FXR relative to INT-747” value on FXR is on record as “about 10 fold”. In addition, the “ileal Fgf15 gene expression” value in data set [2] is given as “stimulated”. For the same compound, in data set [3], the “ileal Shp gene expression” value is “stimulated”. Besides, in data set [4], the “hepatic Bsep induction” value is recorded as “induced hepatic Bsep activation”. Moreover, in the data set on FXR^−/− mice, the ALT levels result is on record as “no difference”, the AST levels result is reported as “no difference”, the “LW/BW ratio (liver weight/body weight)” value is listed as “No difference” and the “serum bile acid levels” value is “no reduction occurred”. For the same compound, the liver tumors found entry with FXR^−/− mice is reported as “several large liver tumors”. Besides, the “serum bile acid levels” value with Mdr2^−/− mice is listed as “significantly reduced”. Further, the “LW/BW ratio (liver weight/body weight)” value with Mdr2^−/− mice (compared to control and INT-747 treated mice) is recorded as “significant reduction”. In the data set with Mdr2^−/− mice (diet 10 mg/kg for 15 months), the “liver tumors found (appearance/size)” value is listed as “minute tumors”. Further, the “hepatocellular carcinoma development (number of hepatic tumors)” value in the data set with Mdr2^−/− mice (diet 10 mg/kg for 15 months, compared to control) is “clearly prevented hepatocellular carcinoma development”. In the data set on Mdr2^−/− mice (vs control), the ALT levels result is listed as “significantly reduced” and the AST levels entry was “significantly reduced”.

With `CC[C@H]1[C@@H](O)[C@@H]2[C@H](CC[C@]3(C)[C@@H]([C@H](C)CCC(=O)O)CC[C@@H]23)[C@@]2(C)CC[C@@H](O)C[C@@H]12` [INT-747, 6α-ethyl-3α,7α-dihydroxy-5β-cholan-24-oic acid], the “ileal Fgf15 gene expression” value in data set [2] is reported as “stimulated”. Moreover, the “ileal Shp gene expression” value in data set [3] is “stimulated”. The “hepatic Cyp7a1 gene expression” value in data set [1] is on record as “inhibited”. The “hepatic Bsep induction” value in data set [4] was “did not promote hepatic Bsep induction”. Moreover, in the data set on FXR^−/− mice, the liver tumors found result is given as “several large liver tumors”. Moreover, in the data set with Mdr2^−/− mice (diet 10 mg/kg for 15 months), the “liver tumors found (appearance/size)” value is listed as “clearly identifiable liver tumors” and the “tumors with a diameter larger than 5 mm” value is around 80%.
